Test results from ChEMBL document CHEMBL1201862, “PubChem BioAssay data set” (2004).
The source made the active and inactive calls.

What was measured:
[1] = blockers of HIV-1 envelope-mediated cell-cell fusion – cherry-pick, dose response (AID 652057); assay type: functional, cell-based
[2] = HIV-1 AD8 envelope cell-cell fusion blockers – cherry-pick, dose response (AID 652062); assay type: functional, cell-based;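 note: luciferase signal from cell-cell fusion driven by HIV-1 clade B AD8 Env; potency is for inhibitors of fusion seen as a drop in luminescence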
[3] = target: T1, Polyadenylate-binding protein 1 (Homo sapiens, UniProt P11940); experiment: MLLE binding blockers, Cy5 peptide tracer – biochemical, fluorescence polarization, Cy5-PAM2 peptide, secondary, miRNA deadenylation inhibitor project, dose response (AID 602260); assay type: functional; settings: read-out: IC50_Mean
T1 sequence (P11940 whole entry, the tested form may be a part): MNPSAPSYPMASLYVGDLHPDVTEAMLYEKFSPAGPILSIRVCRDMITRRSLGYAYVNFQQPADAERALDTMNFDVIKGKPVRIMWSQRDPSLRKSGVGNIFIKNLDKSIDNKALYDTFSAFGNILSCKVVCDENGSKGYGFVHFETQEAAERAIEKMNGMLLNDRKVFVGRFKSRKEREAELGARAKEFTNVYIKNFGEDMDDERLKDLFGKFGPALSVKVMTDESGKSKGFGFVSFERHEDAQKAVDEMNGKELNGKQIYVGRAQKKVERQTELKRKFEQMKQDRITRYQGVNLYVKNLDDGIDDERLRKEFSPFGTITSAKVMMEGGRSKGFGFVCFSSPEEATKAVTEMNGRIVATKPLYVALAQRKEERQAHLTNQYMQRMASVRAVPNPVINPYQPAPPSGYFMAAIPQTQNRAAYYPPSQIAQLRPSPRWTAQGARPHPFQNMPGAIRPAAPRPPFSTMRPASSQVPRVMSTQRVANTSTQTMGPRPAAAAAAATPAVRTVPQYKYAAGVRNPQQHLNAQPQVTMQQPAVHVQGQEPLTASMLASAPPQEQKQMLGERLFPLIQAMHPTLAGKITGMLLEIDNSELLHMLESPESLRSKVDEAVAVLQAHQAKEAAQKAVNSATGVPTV

[4] = target: T1, Polyadenylate-binding protein 1; experiment: MLLE domain peptide-binding blockers, IC50 – biochemical, fluorescence polarization, FITC-PAM2 peptide, dose response (AID 602259); assay type: functional; settings: read-out: IC50_Mean
Genome polyprotein = Genome polyprotein (dengue virus type 2, UniProt P29990); experiment: flavivirus cap methylation enzyme inhibition – biochemical, confirmation dose response, primary screen (AID 588689); assay type: functional
Sequence of Genome polyprotein (P29990 2492-3391 limits assumed): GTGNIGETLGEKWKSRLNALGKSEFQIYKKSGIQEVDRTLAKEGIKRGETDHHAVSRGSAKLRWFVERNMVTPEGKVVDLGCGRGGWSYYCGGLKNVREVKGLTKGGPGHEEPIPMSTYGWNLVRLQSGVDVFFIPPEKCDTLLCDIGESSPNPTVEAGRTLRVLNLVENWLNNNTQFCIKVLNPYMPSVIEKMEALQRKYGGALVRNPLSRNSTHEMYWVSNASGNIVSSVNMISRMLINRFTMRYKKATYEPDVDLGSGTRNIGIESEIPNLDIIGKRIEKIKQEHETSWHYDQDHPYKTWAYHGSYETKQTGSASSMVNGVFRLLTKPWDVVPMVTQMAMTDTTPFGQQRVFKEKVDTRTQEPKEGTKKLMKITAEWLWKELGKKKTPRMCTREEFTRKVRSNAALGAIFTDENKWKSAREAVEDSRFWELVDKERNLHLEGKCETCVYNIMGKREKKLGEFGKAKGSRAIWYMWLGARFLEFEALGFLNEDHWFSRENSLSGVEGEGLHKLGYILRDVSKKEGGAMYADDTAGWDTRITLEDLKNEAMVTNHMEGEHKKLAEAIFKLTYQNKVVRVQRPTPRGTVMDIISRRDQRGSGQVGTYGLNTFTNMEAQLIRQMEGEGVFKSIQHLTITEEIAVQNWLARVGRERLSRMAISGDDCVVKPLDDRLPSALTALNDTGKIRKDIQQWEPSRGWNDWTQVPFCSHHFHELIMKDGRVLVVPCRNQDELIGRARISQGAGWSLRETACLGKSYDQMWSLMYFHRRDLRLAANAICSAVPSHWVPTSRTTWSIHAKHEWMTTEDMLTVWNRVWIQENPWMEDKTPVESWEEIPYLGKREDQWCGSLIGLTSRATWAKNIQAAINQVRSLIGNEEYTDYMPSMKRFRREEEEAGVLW

[5] = target: T2, Replicative DNA helicase DnaB (Mycobacterium tuberculosis, UniProt P9WMR3); experiment: DnaB intein splicing inhibitors, dose response, biochemical, cell-free fluorescence (AID 449749); assay type: functional
T2 sequence (P9WMR3 whole entry): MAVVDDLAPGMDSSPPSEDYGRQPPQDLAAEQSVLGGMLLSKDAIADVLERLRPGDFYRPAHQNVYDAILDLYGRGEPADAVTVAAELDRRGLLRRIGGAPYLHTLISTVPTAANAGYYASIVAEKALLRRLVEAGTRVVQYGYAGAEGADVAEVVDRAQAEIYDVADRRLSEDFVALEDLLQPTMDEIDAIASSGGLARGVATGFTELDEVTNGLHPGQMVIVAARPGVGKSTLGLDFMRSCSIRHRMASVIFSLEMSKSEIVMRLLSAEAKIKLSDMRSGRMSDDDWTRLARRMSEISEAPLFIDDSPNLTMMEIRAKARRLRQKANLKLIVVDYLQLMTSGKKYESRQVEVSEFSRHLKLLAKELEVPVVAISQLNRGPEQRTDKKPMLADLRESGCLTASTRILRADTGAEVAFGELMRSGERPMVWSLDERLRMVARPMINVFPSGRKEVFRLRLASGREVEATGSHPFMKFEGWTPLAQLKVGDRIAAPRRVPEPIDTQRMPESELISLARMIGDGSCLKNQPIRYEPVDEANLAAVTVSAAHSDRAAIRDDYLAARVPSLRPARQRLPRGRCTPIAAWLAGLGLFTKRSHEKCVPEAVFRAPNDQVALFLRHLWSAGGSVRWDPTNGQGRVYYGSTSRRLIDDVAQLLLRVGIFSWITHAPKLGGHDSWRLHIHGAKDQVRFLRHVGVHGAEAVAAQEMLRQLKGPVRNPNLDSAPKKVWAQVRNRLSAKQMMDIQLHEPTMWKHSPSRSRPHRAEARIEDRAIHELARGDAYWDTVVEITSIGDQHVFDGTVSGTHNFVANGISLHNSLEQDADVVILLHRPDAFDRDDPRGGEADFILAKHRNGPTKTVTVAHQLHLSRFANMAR

Protein RecA = target: T3, Protein RecA (Mycobacterium tuberculosis, UniProt P9WHJ3); experiment: Fluorescence Cell-Free Homogeneous Dose Retest to Identify Inhibitors of RecA-Intein Splicing Activity. [Related pubchem assays (depositor defined):AID2097, AID2223, AID489010, AID492950]; assay type: functional
T3 sequence (P9WHJ3 whole entry): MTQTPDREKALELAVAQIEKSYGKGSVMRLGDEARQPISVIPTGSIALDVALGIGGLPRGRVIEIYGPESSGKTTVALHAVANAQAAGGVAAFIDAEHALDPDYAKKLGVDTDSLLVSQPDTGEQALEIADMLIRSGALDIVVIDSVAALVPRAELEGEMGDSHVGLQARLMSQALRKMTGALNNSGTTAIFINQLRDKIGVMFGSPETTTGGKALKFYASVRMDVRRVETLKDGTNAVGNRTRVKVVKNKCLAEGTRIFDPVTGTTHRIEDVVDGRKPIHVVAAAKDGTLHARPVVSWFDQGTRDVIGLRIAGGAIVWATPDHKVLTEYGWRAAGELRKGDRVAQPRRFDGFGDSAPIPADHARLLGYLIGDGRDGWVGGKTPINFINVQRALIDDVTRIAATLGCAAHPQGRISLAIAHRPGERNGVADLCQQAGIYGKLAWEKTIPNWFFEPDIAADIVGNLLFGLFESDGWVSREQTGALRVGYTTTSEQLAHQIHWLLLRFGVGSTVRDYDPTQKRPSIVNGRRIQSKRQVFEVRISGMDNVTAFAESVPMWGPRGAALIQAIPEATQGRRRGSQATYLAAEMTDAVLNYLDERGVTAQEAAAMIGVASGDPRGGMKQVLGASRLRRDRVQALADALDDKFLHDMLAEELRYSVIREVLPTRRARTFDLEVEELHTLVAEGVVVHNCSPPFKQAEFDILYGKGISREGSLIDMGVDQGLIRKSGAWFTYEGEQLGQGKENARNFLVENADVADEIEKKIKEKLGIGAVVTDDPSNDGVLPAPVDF

[6] = NIH-3T3 fibroblast cytotoxicity, dose response, cytotoxicity control, cell-based, fluorescence, Alamar Blue, secondary assay (AID 2327); assay type: functional;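 note: NIH-3T3 mouse fibroblasts cultured with fluconazole at 8 µg/mL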
[7] = fluconazole-exposed Candida albicans growth modulators – fluorescence, retest, confirmation (AID 2467); assay type: functional, cell-based
[8] = Trypanosoma cruzi growth suppression in host cells – NIH3T3 host cells, beta-gal luminescence, confirmation (AID 2044); assay type: functional, cell-based;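 note: intracellular parasites grown in NIH/3T3 mouse fibroblasts as host cells; luminescent beta-galactosidase reporter signal from transgenic T. cruzi replicating inside host cells; inhibitors lower the luminescence signal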
[9] = NIH3T3 cell viability loss – ATP luminescence, mouse fibroblasts, counter-screen, dose response (AID 2010); assay type: functional, cell-based;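 note: cells exposed to compound for about 90 hours before reading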
[10] = viability of PTEN-deleted HCT116 cells – cell-based, HCT116 PTEN knockout, dose response (AID 1047); assay type: functional;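 note: HCT116 colon tumor cells with PTEN knocked out; cells exposed to compound for 60 hours before readout; potency for loss of cell viability measured by luminescence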
[11] = viability of HCT116 lacking mutant beta-catenin – cell-based, human colon tumor, dose response (AID 1045); assay type: functional;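 note: HCT116 colon tumor cells with beta catenin knocked out; cells exposed to compound for 60 hours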
Cytochrome P450 2C19 = Cytochrome P450 2C19 (Homo sapiens, UniProt P33261); experiment: Cytochrome panel assay with activity outcomes. Panel member name: p450-cyp2c19 Compounds with AC50 equal or less than 10 uM are considered active; assay type: functional; settings: read-out: AC50
Sequence of Cytochrome P450 2C19 (P33261 whole entry): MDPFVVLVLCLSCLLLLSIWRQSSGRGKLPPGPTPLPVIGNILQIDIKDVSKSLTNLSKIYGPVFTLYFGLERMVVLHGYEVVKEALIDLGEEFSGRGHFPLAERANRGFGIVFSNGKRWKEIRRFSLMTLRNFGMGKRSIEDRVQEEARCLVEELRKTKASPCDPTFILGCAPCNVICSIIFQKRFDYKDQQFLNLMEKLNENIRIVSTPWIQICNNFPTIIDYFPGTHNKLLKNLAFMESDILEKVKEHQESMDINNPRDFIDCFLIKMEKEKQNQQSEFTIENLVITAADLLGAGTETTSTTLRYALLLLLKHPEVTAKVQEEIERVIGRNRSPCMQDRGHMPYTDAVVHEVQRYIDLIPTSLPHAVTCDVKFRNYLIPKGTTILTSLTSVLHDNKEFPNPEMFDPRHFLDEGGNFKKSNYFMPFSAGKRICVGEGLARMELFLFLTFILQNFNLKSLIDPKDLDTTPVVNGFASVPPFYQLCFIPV

INS1 = experiment: INS-1E survival protection against cytokine death – cell-based, luminescence, retest, dose response (AID 449756); assay type: functional; settings: Rattus norvegicus;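 note: cell death triggered by IL-1 beta plus TNF-alpha plus IFN-gamma mixture; protective hits raise ATP signal compared with cytokine alone wells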
[12] = test system: Streptococcus sp. 'group A'; experiment: Streptococcus pyogenes SK(-)GAS viability under kanamycin – luminescence, BacTiterGlo, confirmation, counter-screen for streptokinase expression inhibitor project, dose response (AID 1900); assay type: functional, organism-based
Streptococcus = experiment: GAS UMAA2166 growth inhibition – luminescence, BacTiterGlo, counter-screen for streptokinase expression inhibitor project, dose response (AID 1915); assay type: functional, organism-based;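 note: potency for reduction of bacterial viability or growth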
[13] = target: Heat shock protein HSP 90-alpha (Homo sapiens, UniProt P07900); assay type: functional, organism-based
Streptokinase A = target: T4, Streptokinase A (Streptococcus pyogenes serotype M1, UniProt P10520); experiment: viability-normalized secreted streptokinase activity reduction – plasminogen activation absorbance, OD405, dose response (AID 1914); assay type: functional, Streptococcus pyogenes M1 GAS;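 note: secreted streptokinase activity via plasminogen activation per viability signal from cell pellet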
T4 sequence (P10520 whole entry): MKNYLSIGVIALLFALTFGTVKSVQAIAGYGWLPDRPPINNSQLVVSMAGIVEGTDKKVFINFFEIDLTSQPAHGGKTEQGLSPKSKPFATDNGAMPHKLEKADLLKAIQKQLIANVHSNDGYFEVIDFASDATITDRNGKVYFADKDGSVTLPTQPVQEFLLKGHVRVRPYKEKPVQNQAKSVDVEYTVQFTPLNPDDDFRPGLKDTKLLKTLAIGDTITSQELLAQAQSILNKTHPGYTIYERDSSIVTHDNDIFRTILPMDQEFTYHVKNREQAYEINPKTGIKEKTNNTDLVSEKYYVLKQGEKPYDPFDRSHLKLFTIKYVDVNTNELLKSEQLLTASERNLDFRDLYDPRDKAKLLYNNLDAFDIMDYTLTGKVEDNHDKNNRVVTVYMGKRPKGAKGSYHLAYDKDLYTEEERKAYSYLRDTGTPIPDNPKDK

[14] = off-target signal loss in HeLa-CEM21 co-culture – HeLa F-luc CTL cells, cherry-picked, counter-screen for HIV-1 Env fusion inhibitor project, dose response (AID 652040); assay type: functional, cell-based;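 note: potency for signal decrease marking cytotoxic or nonspecific inhibition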
[15] = intracellular Trypanosoma cruzi inhibitors in host cells – cell-based, plate reader, cherry-pick samples, set 3, dose response (AID 651818); assay type: functional;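 note: compounds incubated with infected cells for about four days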

## Cc1ccc(S(=O)(=O)NCC(=O)OCC(=O)NCc2ccc3c(c2)OCO3)cc1
[1]
  AC50: 24 µM (active)
[2]
  AC50: 5.22 µM (active)

## CC(OC(=O)CSc1ccc([N+](=O)[O-])cc1)C(=O)NC1CC1 (stereo not drawn)
[3]
  IC50: > 66 µM (inactive)
[4]
  IC50: > 66 µM (inactive)

## O=C1CNC(=O)/C1=C/c1ccc(Br)cc1
Genome polyprotein
  IC50: > 100 µM (active)

## COc1cccc(/C=C2\SC(=S)N(C(C(=O)O)c3ccccc3)C2=O)c1OC (stereo not drawn)
Genome polyprotein
  IC50: 49.7 µM (active)

## Cc1ccc(N2C(=O)C(Cl)=C(N3CCOCC3)C2=O)cc1Cl
[5]
  AC50: 6.76 µM (active)
Protein RecA
  EC50: 2.61 µM (active)
Genome polyprotein
  IC50: 34.7 µM (active)

## CC(C)c1ccc(NC(=O)Cc2cn(C)c3ccccc23)cc1
[6]
  EC50: > 150 µM (inactive)
[7]
  EC50: > 38 µM (not active)

## CC(NC(=O)CSC1=NCCS1)c1ccccc1 (stereo not drawn)
[3]
  IC50: > 66 µM (inactive)
[4]
  IC50: > 66 µM (inactive)

## Cc1cc(C)cc(N2C(=O)CC(Sc3ccccc3C(=O)O)C2=O)c1 (stereo not drawn)
[3]
  IC50: > 66 µM (inactive)
[4]
  IC50: > 66 µM (inactive)

## O=C(NC(=S)Nc1ccc(Oc2ccccc2)cc1)c1ccc(Cl)cc1
[8]
  EC50: 2.34 µM (active)
[9]
  EC50: > 60 µM (not active)
[3]
  IC50: > 66 µM (inactive)
[4]
  IC50: > 66 µM (inactive)

## COc1ccc(CNCCC(c2ccc(OC(C)C)cc2)C(C)C)cc1OC (stereo not drawn)
[8]
  EC50: 0.416 µM (active)
[10]
  EC50: 13 µM (active)
[9]
  EC50: 9.8 µM (active)
[11]
  EC50: 10.7 µM (active)
Cytochrome P450 2C19
  AC50: 10 µM (inconclusive)
INS1
  AC50: 12.7 µM (active)

## O=C(Cc1ccc([N+](=O)[O-])cc1)NNC(=O)c1ccc2c(c1)OCO2
[6]
  EC50: > 150 µM (inactive)
[7]
  EC50: > 38 µM (not active)

## O=C(Nc1cccc(C(F)(F)F)c1)Oc1ccc(Cl)c2cccnc12
[12]
  EC50: 2.54 µM (active)
Streptococcus
  EC50: 4.98 µM (active)
[13]
  AC50: 3.86 µM (active)
INS1
  AC50: 7.15 µM (active)

## Nc1c(C(=O)Nc2ccc3c(c2)OCCO3)nnn1Cc1ccccc1Cl
[13]
  AC50: 10.3 µM (active)
INS1
  AC50: 0.653 µM (active)

## O=C(CSc1nc(O)c(Cc2ccccc2)c(=O)[nH]1)Nc1ccccc1
[3]
  IC50: > 66 µM (inactive)
[4]
  IC50: > 66 µM (inactive)

## O=C(COc1ccccc1)Nc1nc(-c2ccncc2)cs1
[3]
  IC50: > 66 µM (inactive)
[4]
  IC50: > 66 µM (inactive)

## Cc1ccc(CNC(=O)CSCc2cccc(F)c2)cc1
[6]
  EC50: > 150 µM (inactive)
[7]
  EC50: > 38 µM (not active)

## CCOC(=O)c1sc(N2C(=O)C(O)=C(C(=O)c3ccco3)C2c2cccc(Cl)c2)nc1C (stereo not drawn)
[6]
  EC50: 30.5 µM (active)
[12]
  EC50: 7.41 µM (active)
Streptokinase A
  EC50: > 150 µM (not active)
[7]
  EC50: 1.41 µM (active)
Streptococcus
  EC50: 8.62 µM (active)

## O=C(Nc1ccc(F)cc1)c1nc[nH]c1C(=O)Nc1ccccc1[N+](=O)[O-]
[10]
  EC50: 3.08 µM (active)
[11]
  EC50: 4.18 µM (active)

## CCc1ccc(Nc2ccc(C(=O)O)cc2[N+](=O)[O-])cc1
Genome polyprotein
  IC50: > 100 µM (active)

## CC(C)(C)c1ccc(-n2ncc3c2CCCC3NC(=O)CN2CCCC2=O)cc1 (stereo not drawn)
[14]
  AC50: > 32 µM (inactive)

## N=C(N)SCP(=O)(c1ccccc1)c1ccccc1
[3]
  IC50: > 66 µM (inactive)
[4]
  IC50: > 66 µM (inactive)

## COC1C=COC2(C)Oc3c(C)c(O)c4c(O)c(c(CN5CCN(C)CC5)c(O)c4c3C2=O)NC(=O)C(C)=CC=CC(C)C(O)C(C)C(O)C(C)C(OC(C)=O)C1C (stereo not drawn)
Genome polyprotein
  IC50: 96.6 µM (active)

## O=C1NC(=O)C(=Cc2c(Cl)cccc2Cl)C(=O)N1
Genome polyprotein
  IC50: 43.4 µM (active)

## O=C(O)c1cccc2c1Cc1cc([N+](=O)[O-])ccc1-2
[13]
  AC50: 0.357 µM (active)

## C[C@H](CO)N1C[C@H](C)[C@@H](CN(C)CC2CCCCC2)Oc2c(NS(=O)(=O)c3cccs3)cccc2C1=O
[15]
  AC50: 19.7 µM (active)

## C[C@@H]1CN([C@@H](C)CO)C(=O)Cc2cc(NC(=O)Nc3ccc(C(F)(F)F)cc3)ccc2O[C@@H]1CN(C)CC1CCCCC1
[15]
  AC50: 1.93 µM (active)

## C[C@@H]1CN([C@H](C)CO)C(=O)Cc2cc(NC(=O)Cc3cn(C)c4ccccc34)ccc2O[C@H]1CN(C)Cc1ccc(Oc2ccccc2)cc1
[15]
  AC50: 3.74 µM (active)

## Cc1ccc(S(=O)(=O)N(C)C[C@H]2Oc3cc(-c4cccc(F)c4)ccc3S(=O)(=O)N([C@@H](C)CO)C[C@H]2C)cc1
[1]
  AC50: 1.47 µM (active)
[2]
  AC50: 6.67 µM (active)
